Format in all cases: functional
In one experiment the test system is Bacillus subtilis. As to the kind of experiment: Antibacterial activity against Bacillus subtilis ATCC 6633 assessed as growth inhibition by M7-A6 method.
Experiment [1] deals with Pseudomonas aeruginosa. As to the kind of experiment: Antibacterial activity against Pseudomonas aeruginosa ATCC 15442 assessed as growth inhibition by M7-A6 method.
For experiment [2], the system named is Staphylococcus aureus. As to the kind of experiment: Antibacterial activity against Staphylococcus aureus ATCC 6538 assessed as growth inhibition by M7-A6 method.
In another experiment the test system is Aspergillus brasiliensis. Description: Antifungal activity against Aspergillus brasiliensis ATCC 16404 assessed as growth inhibition by M7-A6 method.
Experiment [3] relates to Escherichia coli. Description: Antibacterial activity against Escherichia coli ATCC 8739 assessed as growth inhibition by M7-A6 method.
The test system of experiment [4] is Pseudomonas aeruginosa. As to the kind of experiment: Antibacterial activity against Pseudomonas aeruginosa ATCC 9027 assessed as growth inhibition by M7-A6 method.
The test system of the next experiment is Candida parapsilosis. Description: Antifungal activity against Candida parapsilosis ATCC 22019 assessed as growth inhibition by M7-A6 method. To be noted: Lodderomyces parapsilosis.
Experiment [5] concerns Micrococcus luteus. As to the kind of experiment: Antibacterial activity against Micrococcus luteus ATCC 9341 assessed as growth inhibition by M7-A6 method.
Experiment [6] in a line: Antifungal activity against Zygosaccharomyces rouxii ATCC 28253 assessed as growth inhibition by M7-A6 method.
A further experiment deals with Bacillus cereus. Description: Antibacterial activity against Bacillus cereus ATCC 11778 assessed as growth inhibition by M7-A6 method.
The test system of experiment [7] is Micrococcus luteus. As to the kind of experiment: Antibacterial activity against Micrococcus luteus ATCC 10240 assessed as growth inhibition by M7-A6 method.
Experiment [8] deals with Escherichia coli. Description: Antibacterial activity against Escherichia coli ATCC 10536 assessed as growth inhibition by M7-A6 method.
The test system of another experiment is Saccharomyces cerevisiae. Description: Antifungal activity against Saccharomyces cerevisiae ATCC 9763 assessed as growth inhibition by M7-A6 method.
In experiment [9] the test system is Staphylococcus aureus. Description: Antibacterial activity against Staphylococcus aureus ATCC 6538P assessed as growth inhibition by M7-A6 method.
The subject of experiment [10] is Candida albicans. Description: Antifungal activity against Candida albicans ATCC 10231 assessed as growth inhibition by M7-A6 method.
Experiment [11] has as its system Candida albicans. As to the kind of experiment: Antifungal activity against Candida albicans ATCC 2091 assessed as growth inhibition by M7-A6 method.

Converted amounts (≈) assume the structure as drawn. Bounds are passed on as bounds.

In general, MIC refers to the lowest concentration found to suppress growth.

Regarding `COc1cc(C(=N)N)cc(OC)c1OCCN(CCOc1c(OC)cc(C(=N)N)cc1OC)S(=O)(=O)c1ccccc1`, the MIC is 70 µM (≈ 42.1 µg/mL) in the experiment with Bacillus subtilis; 7040 µM (≈ 4240 µg/mL) in the experiment on Pseudomonas aeruginosa [1]; 70 µM (≈ 42.1 µg/mL) with Staphylococcus aureus [2]; 7040 µM (≈ 4240 µg/mL) with Aspergillus brasiliensis; 7040 µM (≈ 4240 µg/mL) in the experiment with Escherichia coli [3]; 7040 µM (≈ 4240 µg/mL) with Pseudomonas aeruginosa [4]. Also, the MIC with Candida parapsilosis stood at 7040 µM (≈ 4240 µg/mL); with Micrococcus luteus [5] it was 2.8 µM (≈ 1.68 µg/mL); in experiment [6], 7040 µM (≈ 4240 µg/mL); in the experiment with Bacillus cereus it was 88 µM (≈ 52.9 µg/mL); with Micrococcus luteus [7], 7 µM (≈ 4.21 µg/mL); in the experiment on Escherichia coli [8], 7040 µM (≈ 4240 µg/mL). For the same compound, the minimum inhibitory concentration (MIC) in the experiment with Saccharomyces cerevisiae was determined as 7040 µM (≈ 4240 µg/mL); in the experiment on Staphylococcus aureus [9], 70 µM (≈ 42.1 µg/mL); in the experiment on Candida albicans [10], 7040 µM (≈ 4240 µg/mL); in the experiment with Candida albicans [11], 7040 µM (≈ 4240 µg/mL).

On to `COc1cc(C(=N)N)ccc1OCCOCCOc1ccc(C(=N)N)cc1OC`, for which the MIC with Bacillus subtilis was 2100 µM (≈ 845 µg/mL); in the experiment on Pseudomonas aeruginosa [1] it was more than 21000 µM; in the experiment with Staphylococcus aureus [2] it was 260 µM (≈ 105 µg/mL); in the experiment with Aspergillus brasiliensis, 21000 µM (≈ 8470 µg/mL); in the experiment with Escherichia coli [3] it was 2100 µM (≈ 845 µg/mL); with Pseudomonas aeruginosa [4], more than 21000 µM. In addition, the MIC in the experiment on Candida parapsilosis worked out at 5260 µM (≈ 2120 µg/mL); with Micrococcus luteus [5], 2100 µM (≈ 845 µg/mL); in the experiment on Bacillus cereus it was 1050 µM (≈ 423 µg/mL); with Micrococcus luteus [7], 520 µM (≈ 209 µg/mL); in the experiment with Escherichia coli [8] it was 10500 µM (≈ 4230 µg/mL); in the experiment with Saccharomyces cerevisiae, 10500 µM (≈ 4230 µg/mL). Also, the MIC with Staphylococcus aureus [9] worked out at 520 µM (≈ 209 µg/mL); with Candida albicans [10], 10500 µM (≈ 4230 µg/mL); in the experiment with Candida albicans [11] it was 10500 µM (≈ 4230 µg/mL).

With `COc1cc(C(=N)N)cc(OC)c1OCCOCCOc1c(OC)cc(C(=N)N)cc1OC`, the MIC with Bacillus subtilis was 420 µM (≈ 194 µg/mL); in the experiment with Pseudomonas aeruginosa [1], more than 17000 µM; in the experiment with Staphylococcus aureus [2] it was 210 µM (≈ 97.1 µg/mL); with Escherichia coli [3], 17000 µM (≈ 7840 µg/mL); in the experiment with Pseudomonas aeruginosa [4], more than 17000 µM; in the experiment on Candida parapsilosis it was more than 17000 µM. The MIC in the experiment with Micrococcus luteus [5] was 17 µM (≈ 7.86 µg/mL); in the experiment with Bacillus cereus it was 17000 µM (≈ 7840 µg/mL); with Micrococcus luteus [7] it was 51 µM (≈ 23.6 µg/mL); in the experiment on Escherichia coli [8], 17000 µM (≈ 7840 µg/mL); in the experiment on Staphylococcus aureus [9], 210 µM (≈ 97.1 µg/mL); in the experiment on Candida albicans [10] it was more than 17000 µM. In the experiment on Candida albicans [11], the MIC is more than 17000 µM.

Turning to `COc1cc(C(=N)N)ccc1OCCN(CCOc1ccc(C(=N)N)cc1OC)S(=O)(=O)c1ccccc1`, the minimal inhibitory concentration (MIC) was found to be 42 µM (≈ 22.7 µg/mL) in the experiment with Bacillus subtilis; 7380 µM (≈ 4000 µg/mL) in the experiment on Pseudomonas aeruginosa [1]; 42 µM (≈ 22.7 µg/mL) with Staphylococcus aureus [2]; 7380 µM (≈ 4000 µg/mL) in the experiment on Aspergillus brasiliensis; 370 µM (≈ 200 µg/mL) in the experiment with Escherichia coli [3]; 7380 µM (≈ 4000 µg/mL) in the experiment on Pseudomonas aeruginosa [4]. In addition, the minimum inhibitory concentration (MIC) stood at 370 µM (≈ 200 µg/mL) in the experiment with Candida parapsilosis; 15 µM (≈ 8.12 µg/mL) with Micrococcus luteus [5]; 180 µM (≈ 97.5 µg/mL) in experiment [6]; 42 µM (≈ 22.7 µg/mL) in the experiment with Bacillus cereus; 42 µM (≈ 22.7 µg/mL) in the experiment on Micrococcus luteus [7]; 740 µM (≈ 401 µg/mL) in the experiment with Escherichia coli [8]. Moreover, the minimal inhibitory concentration (MIC) with Saccharomyces cerevisiae stood at 180 µM (≈ 97.5 µg/mL); in the experiment with Staphylococcus aureus [9], 42 µM (≈ 22.7 µg/mL); with Candida albicans [10] it was 92 µM (≈ 49.8 µg/mL); with Candida albicans [11] it was 370 µM (≈ 200 µg/mL).

For `N=C(N)c1ccc(OCCN(CCOc2ccc(C(=N)N)cc2)S(=O)(=O)c2ccccc2)cc1`, the MIC in the experiment with Bacillus subtilis amounted to 82 µM (≈ 39.5 µg/mL); with Pseudomonas aeruginosa [1], 1640 µM (≈ 790 µg/mL); in the experiment with Staphylococcus aureus [2], 49 µM (≈ 23.6 µg/mL); with Aspergillus brasiliensis it was 8220 µM (≈ 3960 µg/mL); in the experiment with Escherichia coli [3] it was 210 µM (≈ 101 µg/mL); with Pseudomonas aeruginosa [4], 1640 µM (≈ 790 µg/mL). In addition, the minimal inhibitory concentration (MIC) with Candida parapsilosis amounted to 100 µM (≈ 48.2 µg/mL); in the experiment on Micrococcus luteus [5], 100 µM (≈ 48.2 µg/mL); in experiment [6], 10 µM (≈ 4.82 µg/mL); in the experiment on Bacillus cereus it was 16 µM (≈ 7.71 µg/mL); in the experiment with Micrococcus luteus [7] it was 16 µM (≈ 7.71 µg/mL); in the experiment on Escherichia coli [8], 210 µM (≈ 101 µg/mL). In addition, the MIC in the experiment with Saccharomyces cerevisiae turned out to be 210 µM (≈ 101 µg/mL); in the experiment on Staphylococcus aureus [9], 49 µM (≈ 23.6 µg/mL); in the experiment with Candida albicans [10] it was 210 µM (≈ 101 µg/mL); with Candida albicans [11], 210 µM (≈ 101 µg/mL).

Consider `COc1cc(C(=N)N)ccc1OCCN(C)CCOc1ccc(C(=N)N)cc1OC`, for which the MIC was 810 µM (≈ 337 µg/mL) in the experiment on Bacillus subtilis; more than 16300 µM in the experiment with Pseudomonas aeruginosa [1]; 8130 µM (≈ 3380 µg/mL) in the experiment on Staphylococcus aureus [2]; 8130 µM (≈ 3380 µg/mL) in the experiment with Escherichia coli [3]; more than 16300 µM with Pseudomonas aeruginosa [4]; more than 16300 µM in the experiment with Candida parapsilosis. The MIC in the experiment on Micrococcus luteus [5] is 200 µM (≈ 83.1 µg/mL); in the experiment with Bacillus cereus, 100 µM (≈ 41.5 µg/mL); in the experiment with Micrococcus luteus [7], 410 µM (≈ 170 µg/mL); in the experiment with Escherichia coli [8], 16300 µM (≈ 6760 µg/mL); in the experiment on Staphylococcus aureus [9] it was 8130 µM (≈ 3380 µg/mL); with Candida albicans [10] it was more than 16300 µM. In the experiment on Candida albicans [11], the MIC is more than 16300 µM.

As to `CN(CCCCCN(C)c1ccc(C(=N)N)cc1)c1ccc(C(=N)N)cc1`, the minimum inhibitory concentration (MIC) with Bacillus subtilis was 98 µM (≈ 35.9 µg/mL); with Pseudomonas aeruginosa [1] it was more than 19600 µM; in the experiment on Staphylococcus aureus [2], 59 µM (≈ 21.6 µg/mL); in the experiment on Aspergillus brasiliensis, 9780 µM (≈ 3580 µg/mL); with Escherichia coli [3], 9780 µM (≈ 3580 µg/mL); with Pseudomonas aeruginosa [4] it was more than 19600 µM. For the same compound, the MIC came out at 20 µM (≈ 7.33 µg/mL) with Candida parapsilosis; 3.9 µM (≈ 1.43 µg/mL) in the experiment with Micrococcus luteus [5]; 120 µM (≈ 44 µg/mL) in experiment [6]; 59 µM (≈ 21.6 µg/mL) with Bacillus cereus; 19.5 µM (≈ 7.15 µg/mL) in the experiment with Micrococcus luteus [7]; 9780 µM (≈ 3580 µg/mL) with Escherichia coli [8]. The MIC in the experiment with Saccharomyces cerevisiae worked out at 240 µM (≈ 88 µg/mL); in the experiment on Staphylococcus aureus [9], 120 µM (≈ 44 µg/mL); in the experiment with Candida albicans [10], 120 µM (≈ 44 µg/mL); with Candida albicans [11], 120 µM (≈ 44 µg/mL).
